From patent US12473333B2, “Method for increasing ETEC CS6 antigen presentation on cell surface and products obtainable thereof” (Scandinavian Biopharma Holding AB, priority 2011, dated 2025)
Like-named read-outs stand apart in the source and are kept apart here.

System: CS6 expressing bacteria
Procedure: These inactivated bacteria were then used for oral immunizations of mice.
The suspensions were incubated for 2 h at 37° C. with shaking at 60 rpm, and then kept at 4° C. for 3 days without agitation. The bacterial suspensions were then centrifuged, washed, and re-suspended in the same volume of PBS and kept at 4° C. until use. In both inactivation methods, 0.1 ml of each suspension was spread onto blood agar and incubated at 37° C. for up to one week to check for lack of growth. Before being used for oral immunization, the level of CS6 on the inactivated bacteria was checked by inhibition ELISA.

## Oc1ccccc1 [phenol]
0.25% phenol
  killing of the bacteria: did not result in complete killing of the bacteria
0.5% phenol, data not shown
  killing of the bacteria: killed the tested bacteria
